Earlier results as cited in patent publication US10391087B2, “Combination of oxymetazoline and ipratropium in topical nasal application for the treatment of a cough” (priority 2015, dated 2019).
Where two headings read alike, the source gives them in different places. One block for each molecule: values may come before it.

Legend:
[1] = system: ileum guinea pigs nerve tissue; details: range 20 to 70% with increasing concentrations of noradrenaline
[2] = system: nasal secretion (rhinorrhea)
human α1A-adrenoceptors = target: T1, human α1A-adrenoceptors (Homo sapiens, UniProt P35348); details: heterologous cells expressing human α1A-adrenoceptors
T1 sequence (P35348 1-466): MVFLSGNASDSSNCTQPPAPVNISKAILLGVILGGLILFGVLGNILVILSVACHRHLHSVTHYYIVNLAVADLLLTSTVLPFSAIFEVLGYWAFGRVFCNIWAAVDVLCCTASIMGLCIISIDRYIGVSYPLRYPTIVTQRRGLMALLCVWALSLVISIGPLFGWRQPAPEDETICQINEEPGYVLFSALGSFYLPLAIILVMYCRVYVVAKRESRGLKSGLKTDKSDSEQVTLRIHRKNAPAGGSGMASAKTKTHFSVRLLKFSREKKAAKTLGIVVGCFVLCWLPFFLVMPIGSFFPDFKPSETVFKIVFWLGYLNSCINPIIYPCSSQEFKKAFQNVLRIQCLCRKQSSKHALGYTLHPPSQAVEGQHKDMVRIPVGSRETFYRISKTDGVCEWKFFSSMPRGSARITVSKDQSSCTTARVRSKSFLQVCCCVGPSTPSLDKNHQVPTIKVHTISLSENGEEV

α-1 and α-2 receptors = details: inhibited by α-1 antagonist prazosin, minimal inhibition by α-2 antagonist yohimbine
[3] = system: cardiac response of rabbit vagal electrical stimulation; details: rabbit heart

Compound: NC[C@H](O)c1ccc(O)c(O)c1 [Noradrenaline, noradrenaline]
- reduction of acetilcoline discharge, average [1]: 56.8%

Compound: CC(C)[N+]1(C)[C@@H]2CC[C@H]1C[C@@H](OC(=O)C(CO)c1ccccc1)C2 (stereo partly shown) [ipratropium]
- nasal discharge ([2]; four studies, ipratropium alone, intranasally): lower nasal discharge

- Ca2+ responses (human α1A-adrenoceptors): induce responses Ca^2+
- contraction (α-1 and α-2 receptors): dose dependent contraction
Compound: Cc1cc(C(C)(C)C)c(O)c(C)c1CC1=NCCN1 [oximetazoline, oxymetazoline]
- blood pressure (large doses of 0.3%): significant increase in blood pressure
- blood pressure (standard doses of 0.01 to 0.1%): no
- cardiac response of vagal electrical stimulation [3]: significantly inhibited

Compound: Cc1cc(C(C)(C)C)cc(C)c1CC1=NCCN1 [xilometazoline]
- rhinorrhea ([2]; 5 to 10 days after start of the infectious process, p<0.05): decreased rhinorrhea
- nasal secretion compared with placebo ([2]; Eccles 2008, xilometazoline alone, p<0.05): decreased nasal secretion
- rhinorrhea ([2]; another study, measured on day 1 of administration): increases
